{
  "source": "patent US12611443B2",
  "about": "“Methods and compositions related to therapeutic peptides for cancer therapy” (THE UNIVERSITY OF CHICAGO, priority 2018, dated 2026)",
  "key": {"[1]": {"tested_on": "survival, stress, and apoptosis pathways in normal or non-cancer cells", "assay": "Killing program in normal or non-cancer cells", "assay_type": "cell-based", "method": "Western Blot Analysis. Cells were lysed with 1% SDS containing protease and phosphatase inhibitors (Sigma), and protein was quantified with the BCA Protein Assay Kit (Pierce). Proteins (10-20 μg) were resolved on 10%, 12.5%, 15%, or 20% SDS-PAGE gels depending on the target protein, transferred to PVDF membranes (Millipore), blocked with 5% BSA (Sigma) in 0.1% TBS/Tween-20 at RT for 2 hrs, stained with primary and secondary antibodies, and visualized using the ECL detection kit (Biorad) and a LI-COR imager. Antibodies—Antibodies against pERK (4370), ERK (4695), pNFκB (3033), NFκB (8242), pJNK (4668), JNK (9252), CASP3 (9662), PARP (9542), H2AX (2595), TUBB (2125) were from Cell Signaling Technology. Antibodies against γH2AX (05-636-I, Millipore), ELANE (68672, Abcam), N-terminal CD95 (3070R, BioVision), and C-terminal CD95 (60196, Proteintech).\nMitochondrial ROS measurements. Cells were treated with various doses of ELANE for 30 min, washed, labeled with the CM-H2DCFDA dye (ThermoFisher Scientific, 10 μM) for 30 min at 37° C., and fluorescence was quantified by flow cytometry."}, "hCD95": {"tested_on": "hCD95", "assay": "Cleavage of recombinant human CD95 proteins/peptides by ELANE (SDS-PAGE, mass spectrometry)", "assay_type": "biochemical", "conditions": "recombinant aa 1-173 and aa 212-335", "method": "Identification of ELANE cleavage sites in CD95 by mass spectrometry. Recombinant human C-terminal CD95 (aa 212-335, MyBioSource, 10 μg) or recombinant N-terminal CD95 (aa 1-173, ThermoFisher Scientific, 10 μg) were digested with human ELANE (0.1 μg) for 2 h at 37° C., and reactions were stopped with SDS-PAGE loading buffer. Proteins were run on 20% SDS-PAGE gels, stained with Coomassie Blue (ThermoFisher Scientific), and bands were excised for mass spectrometric analyses. Proteins were extracted from excised bands.\nAnalysis of recombinant peptides by mass spectrometry. Recombinant peptides (10 μM) corresponding to aa 214-([…])-231 (SEQ ID NO:6) or 317-([…])-335 (SEQ ID NO:7) of human CD95 (ThermoFisher Scientific) were incubated with ELANE (0.1-0.2 μM) at 37° C. for 15-30 min. Reactions were stopped with 0.1% formic acid."}, "cancer cells": {"tested_on": "cancer cells", "assay": "ELANE internalization by cancer cells and effect of endocytosis inhibitor", "assay_type": "cell-based", "conditions": "cancer cell lysates, 30 mins", "method": "FIGS. 1A-1K. ELANE cleaves CD95 to selectively kill cancer cells. (A): Heatmap summary of ELANE's effects on survival, stress, and apoptosis pathways in cancer cells and healthy cells. (B-C): Cancer cells were treated with ELANE (100 nM) and CD95 cleavage was assessed by western blotting using anti-N-terminal (B) or anti-C-terminal antibodies (C). *, lower molecular weight CD95 fragment. (D): Cancer cells or non-cancer cells were transduced to overexpress CD95 proteins, and effects on ELANE-mediated apoptosis were quantified by ANXAS at 30 min. n=2/group. See FIG. 1I for transduction and CD95 over-expression. (E): Cleavage of recombinant human CD95 N-terminal (aa 1-173) or C-terminal (aa 212-335) proteins by ELANE was assessed by SDS-PAGE and Coomassie blue staining. (F): Bands from (E) were digested with trypsin and analyzed by mass spectrometry to identify putative ELANE cleavage sites (i.e., peptides with non-tryptic ends). Major non-tryptic peptides were quantified by ion chromatograms. (G): Schematic of ELANE cleavage sites in CD95. […] (H): Cleavage of recombinant peptides corresponding to aa 214-231 and aa 317-335 in CD95 by ELANE was monitored by mass spectrometry. (I): Cancer cells or non-cancer cells were treated with fluorescein-labeled ELANE for 10 min and uptake was visualized by immunofluorescence. (J): ELANE catalytic activity in cancer cell lysates following exposure to ELANE for 30 mins in the presence and absence of Dynasore (60 μM endocytosis inhibitor). Effect of Dynasore on cancer cell killing capability of ELANE (measured by calcein-AM). n=6/group. (K): Cancer cells or non-cancer cells were transduced to overexpress various CD95 proteins, and cell viability in the absence of ELANE was determined by calcein-AM. n=10/group. *, p<0.05 Student's t-test."}, "MDA-MB-231 cells": {"tested_on": "MDA-MB-231 cells", "assay": "Resistance to ELANE, repeated exposure in vitro", "assay_type": "cell-based, human", "conditions": "7 exposures, ˜90% death/exposure", "source_text": "(§1) To explore whether cancer cells could acquire resistance to ELANE, a combination of in vitro and in vivo approaches were used."}, "tumor immune cells": {"tested_on": "tumor immune cells", "assay": "Tumor immune cell analysis by flow cytometry", "assay_type": "in vivo, mice", "method": "Tumor immune cell analysis. […] Cells were labeled with various antibodies and analyzed by flow cytometry. Data were quantified by FlowJo v.10.4.1. Antibodies included: CD45 (47-0451), CD11b (25-0112), MHCII (11-5321), CD4 (17-0041), CD8 (12-0081), CD44 (25-0441) from ThermoFisher Scientific; CD3 (560527), CD62L (561917), from BD Biosciences, and Ly6G (127614) from BioLegend.\nAssessment of potential side-effects. ELANE or PMSF-ELANE (11.6 μg/100 μL) were injected into the 4th mammary fat pad of the right ventral side pad of tumor-free C57BL/6 mice once/day for 5 days. One day after the last injection, mice were studied for potential side-effects. Body weight and spleen weight were measured. Apoptosis at the injection site was studied by isolating, fixing, and staining mammary adipose tissue for TUNEL, cCASP3, and cPARP using identical methods described for tumors above. Mammary adipose tissue immune cell populations at the injection site were determined by flow cytometry using identical methods described for tumors above. Liver function was assessed by measuring plasma ALT activity with the Alanine Transaminase Colorimetric Activity Assays Kit (Cayman Chemical)."}, "E0771 or MEL888 tumors": {"tested_on": "E0771 or MEL888 tumors", "assay": "Resistance to ELANE, repeated treatment of tumors in vivo and killing ex vivo", "parameters": "species or system mice", "conditions": "once/day for 7 days, isolated cancer cells ex vivo", "source_text": "as §1"}},
  "note": "“Also recorded” adds a separate entry of the source.",
  "data": [
    {"substance": "ELANE: neutrophil elastase, a serine protease released by human PMNs", "values": [
      {"measurement": "killing program in normal or non-cancer cells", "setting": "[1]", "result": "did not induce this program in all normal or non-cancer cells tested"},
      {"measurement": "cleavage of CD95 N- or C-terminal domain", "setting": "hCD95", "result": "preferentially cleaved the C-terminal domain; also recorded: degrades the C-terminal domain of purified CD95"},
      {"measurement": "catalytic activity of internalized ELANE", "setting": "cancer cells", "result": "retained its catalytic activity"},
      {"measurement": "acquired resistance after repeated exposure in vitro", "setting": "MDA-MB-231 cells", "result": "did not confer resistance"},
      {"measurement": "immune cells at injection site of tumor-free mice", "setting": "tumor immune cells; mammary fat pads of tumor-free mice", "result": "Immune cell increases were not observed"},
      {"measurement": "tumor immune cells", "setting": "tumor immune cells; three immunocompetent models", "result": "increased the number of dendritic cells (DCs), CD8^+ T cells, and CD8^+ T effector cells (CD8^+Teff) in all three immunocompetent models tested"},
      {"measurement": "acquired resistance after repeated treatment in vivo", "setting": "E0771 or MEL888 tumors", "result": "did not attenuate ELANE's ability to kill the isolated cancer cells ex vivo"}
    ]}
  ]
}
